What was measured:
[1] = target: Acetylcholinesterase (Electrophorus electricus) (UniProt O42275); assay: (§1) Inhibition of electric eel AChE using acetylthiocholine iodide as substrate measured over 5 mins by Ellman's method
[2] = target: T1, Acetylcholinesterase (Electrophorus electricus, UniProt O42275); assay: as §1
[3] = target: T2, Acetylcholinesterase (Homo sapiens, UniProt P22303); assay: Inhibition of human AChE using acetylthiocholine iodide as substrate measured over 5 mins by Ellman's method
[4] = target: Cholinesterase (Equus caballus) (UniProt P81908); assay: (§2) Reversible competitive inhibition of equine serum BChE using acetylthiocholine iodide as substrate measured over 5 mins by Ellman's method
[5] = target: T3, Cholinesterase (Equus caballus, UniProt P81908); assay: as §2
[6] = target: T1, Acetylcholinesterase; assay: Reversible competitive inhibition of electric eel AChE using acetylthiocholine iodide as substrate measured over 5 mins by Dixon plot analysis
[7] = target: T2, Acetylcholinesterase; assay: Reversible competitive inhibition of human AChE using acetylthiocholine iodide as substrate measured over 5 mins by Dixon plot analysis
[8] = target: T3, Cholinesterase; assay: Inhibition of equine serum BChE using acetylthiocholine iodide as substrate measured over 5 mins by Dixon plot analysis
[9] = target: Cholinesterase (Equus caballus) (UniProt P81908); settings: 1 mM
Description: Inhibition of equine serum BChE at 1 mM

[10] = target: Acetylcholinesterase (Electrophorus electricus) (UniProt O42275); assay: Inhibition of electric eel AChE using acetylthiocholine iodide as substrate at 8.43 uM measured over 5 mins by Ellman's method relative to control
[11] = Toxicity in Balb/c mouse hemidiaphragm assessed as effect on directly evoked muscle twitch amplitudes at 8.43 uM after 60 mins; type: tissue-based, Diaphragm; settings: 1 h
[12] = Toxicity in Balb/c mouse hemidiaphragm assessed as effect on indirectly evoked muscle twitch amplitudes at 8.43 uM after 60 mins; type: tissue-based, Diaphragm; settings: 1 h
[13] = Toxicity in Balb/c mouse hemidiaphragm assessed as effect on amplitude of endplate potentials after 30 to 60 mins mins in presence of conotoxin GIIIB; type: tissue-based, Diaphragm
[14] = Toxicity in Balb/c mouse hemidiaphragm assessed as effect on endplate potentials half decay after 30 to 60 mins mins in presence of conotoxin GIIIB; type: tissue-based, Diaphragm
[15] = Toxicity in Balb/c mouse hemidiaphragm assessed as effect on amplitude of directly evoked tetanic muscle contractions at 8.43 uM after 60 mins; type: tissue-based, Diaphragm; settings: 1 h
[16] = Toxicity in Balb/c mouse hemidiaphragm assessed as effect on amplitude of indirectly evoked tetanic muscle contractions at 8.43 uM after 60 mins; type: tissue-based, Diaphragm; settings: 1 h

T2 sequence (P22303 whole entry): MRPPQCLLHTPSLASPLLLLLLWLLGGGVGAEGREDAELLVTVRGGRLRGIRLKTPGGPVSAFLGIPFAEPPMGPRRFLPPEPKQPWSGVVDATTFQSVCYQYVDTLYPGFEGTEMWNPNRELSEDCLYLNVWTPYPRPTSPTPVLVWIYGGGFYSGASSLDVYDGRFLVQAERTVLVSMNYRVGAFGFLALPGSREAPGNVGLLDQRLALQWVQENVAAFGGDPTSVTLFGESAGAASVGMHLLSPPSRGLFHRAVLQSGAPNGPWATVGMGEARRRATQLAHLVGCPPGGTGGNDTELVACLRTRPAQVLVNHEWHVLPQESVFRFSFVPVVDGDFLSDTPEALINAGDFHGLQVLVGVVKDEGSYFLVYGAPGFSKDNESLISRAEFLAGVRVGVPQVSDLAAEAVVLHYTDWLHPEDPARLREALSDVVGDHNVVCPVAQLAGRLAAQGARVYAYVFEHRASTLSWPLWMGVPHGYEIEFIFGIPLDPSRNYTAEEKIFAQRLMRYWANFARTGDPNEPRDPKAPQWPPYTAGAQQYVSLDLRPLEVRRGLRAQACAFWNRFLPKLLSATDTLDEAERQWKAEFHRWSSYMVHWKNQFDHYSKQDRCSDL
Sequence of Acetylcholinesterase (Electrophorus electricus) (O42275 24-633 limits assumed): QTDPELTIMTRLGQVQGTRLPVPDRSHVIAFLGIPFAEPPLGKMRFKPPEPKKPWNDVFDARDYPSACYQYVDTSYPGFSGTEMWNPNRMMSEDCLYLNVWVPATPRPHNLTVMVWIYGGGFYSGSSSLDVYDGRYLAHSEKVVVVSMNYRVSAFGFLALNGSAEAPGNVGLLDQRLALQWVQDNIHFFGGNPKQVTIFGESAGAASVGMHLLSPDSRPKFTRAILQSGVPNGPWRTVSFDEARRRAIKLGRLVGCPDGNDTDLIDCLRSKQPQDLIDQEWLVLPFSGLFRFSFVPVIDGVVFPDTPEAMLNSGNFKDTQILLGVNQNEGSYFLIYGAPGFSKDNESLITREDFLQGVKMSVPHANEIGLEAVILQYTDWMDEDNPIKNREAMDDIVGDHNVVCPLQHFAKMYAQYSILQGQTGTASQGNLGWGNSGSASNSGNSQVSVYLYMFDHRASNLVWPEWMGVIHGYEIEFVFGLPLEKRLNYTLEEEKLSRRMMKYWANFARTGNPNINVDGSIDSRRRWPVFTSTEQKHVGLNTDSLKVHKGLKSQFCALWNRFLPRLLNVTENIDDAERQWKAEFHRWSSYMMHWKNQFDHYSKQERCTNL
T1 sequence (O42275 whole entry): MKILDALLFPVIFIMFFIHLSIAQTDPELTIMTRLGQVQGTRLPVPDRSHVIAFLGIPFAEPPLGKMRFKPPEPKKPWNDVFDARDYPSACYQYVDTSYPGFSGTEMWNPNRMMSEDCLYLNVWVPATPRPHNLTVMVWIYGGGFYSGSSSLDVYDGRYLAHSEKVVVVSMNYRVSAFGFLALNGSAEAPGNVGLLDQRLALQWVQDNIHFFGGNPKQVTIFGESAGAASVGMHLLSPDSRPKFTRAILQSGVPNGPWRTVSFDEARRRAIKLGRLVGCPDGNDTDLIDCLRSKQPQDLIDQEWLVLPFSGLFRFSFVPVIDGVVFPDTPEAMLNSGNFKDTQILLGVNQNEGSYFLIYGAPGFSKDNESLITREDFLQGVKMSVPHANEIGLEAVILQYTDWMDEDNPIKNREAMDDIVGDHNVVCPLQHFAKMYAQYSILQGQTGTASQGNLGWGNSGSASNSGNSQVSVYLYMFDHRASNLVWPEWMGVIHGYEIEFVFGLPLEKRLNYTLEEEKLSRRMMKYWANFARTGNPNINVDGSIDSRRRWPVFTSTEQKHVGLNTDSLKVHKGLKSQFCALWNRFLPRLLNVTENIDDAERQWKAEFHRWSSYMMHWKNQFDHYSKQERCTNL
Sequence of Cholinesterase (Equus caballus) (P81908 whole entry): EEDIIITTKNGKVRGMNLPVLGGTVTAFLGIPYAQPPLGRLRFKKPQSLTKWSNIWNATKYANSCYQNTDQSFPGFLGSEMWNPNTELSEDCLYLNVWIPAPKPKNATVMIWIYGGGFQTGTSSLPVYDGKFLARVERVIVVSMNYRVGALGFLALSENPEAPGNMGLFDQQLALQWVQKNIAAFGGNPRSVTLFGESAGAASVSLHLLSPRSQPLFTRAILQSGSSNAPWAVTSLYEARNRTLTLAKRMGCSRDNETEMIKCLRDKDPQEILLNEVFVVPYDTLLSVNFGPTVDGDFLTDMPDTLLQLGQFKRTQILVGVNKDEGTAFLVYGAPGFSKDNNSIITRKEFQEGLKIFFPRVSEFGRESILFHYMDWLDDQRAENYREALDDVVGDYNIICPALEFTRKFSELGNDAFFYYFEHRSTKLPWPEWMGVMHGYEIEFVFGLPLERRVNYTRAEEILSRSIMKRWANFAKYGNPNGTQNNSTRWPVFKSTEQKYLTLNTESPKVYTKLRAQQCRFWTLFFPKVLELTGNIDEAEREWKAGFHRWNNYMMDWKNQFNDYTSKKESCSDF
T3 sequence (P81908 whole entry): as above

O=C1C=C2S[C@H]3C[C@]2(C=C1Br)C1=C(N3)C(=O)c2[nH]cc3c2C1=NCC3 [DISCORHABDIN B]
inhibition [1]: Dose-dependent effect | IC50 [2]: 5.7 µM | IC50 [3]: 49.4 µM | inhibition [3]: Dose-dependent effect | inhibition [4]: Dose-dependent effect | IC50 [5]: 137 µM | Ki [6]: 1.9 µM | Ki [7]: 22.8 µM | Ki [8]: 76 µM

COc1ccc2c3c1O[C@H]1C[C@@H](O)C=C[C@@]31CCN(C)C2
inhibition [9]: 80.3%

O=C(O)C(F)(F)F.O=C1CC[C@@]2(C=CNC3=C2C2=NCCc4c[nH]c(c42)C3=O)C=C1Br
inhibition [1]: Dose-dependent effect | IC50 [2]: 1.3 µM | IC50 [3]: 116 µM | inhibition [3]: Dose-dependent effect | inhibition [4]: Dose-dependent effect | IC50 [5]: 7 µM | Ki [6]: 1.6 µM | Ki [7]: 56.2 µM | Ki [8]: 5 µM | inhibition [10]: 80% | Activity [11]: Non-Toxic | Activity [12]: Non-Toxic | Activity [13]: Non-Toxic | Activity [14]: Non-Toxic | Activity [15]: Non-Toxic | Activity [16]: Non-Toxic

O=C1C2=C3C4=[N+](CCc5c[nH]c1c54)[C@@H]1C(=O)C=C4S[C@@H](C[C@@]43[C@H]1O)N2 [DISCORHABDIN L]
inhibition [1]: Dose-dependent effect | IC50 [2]: 25.7 µM | IC50 [3]: 158 µM | inhibition [3]: Dose-dependent effect | inhibition [4]: Dose-dependent effect | IC50 [5]: 531 µM | Ki [6]: 15 µM

CNC(=O)Oc1ccc2c(c1)[C@]1(C)CCN[C@@H]1N2
IC50 [2]: 3 µM | IC50 [3]: 14.5 µM | IC50 [5]: 28.5 µM

O=C1C2=C(C3=NCCc4c[nH]c1c43)C1(C=CN2)C=C(Br)C(O)C(Br)=C1 (stereo not given)
inhibition [1]: Dose-dependent effect | IC50 [2]: 14.5 µM | IC50 [3]: 152 µM | inhibition [3]: Dose-dependent effect | inhibition [4]: Dose-dependent effect | IC50 [5]: 15.8 µM | Ki [6]: 3.5 µM | Ki [7]: 98 µM | Ki [8]: 17.5 µM
